In BindingDB's records for doi:10.1016/s0960-894x(01)00038-5 (Glaxosmithkline, 2001):

Molecular target: Lipoprotein-associated phospholipase A2 (Rattus norvegicus)
Test: Concentration required for inhibition ofLipoprotein associated phospholipase A2 in rat at dose 2 umol/kg/h

CCCCCCCCCCCCN(C)C(=O)Cn1cc(Cc2cnc(=O)n(CC(=O)O)c2)c(=O)nc1SCc1ccc(F)cc1 [{5-[1-[(Dodecyl-methyl-carbamoyl)-methyl]-2-(4-fluoro-benzylsulfanyl)-4-oxo-1,4-dihydro-pyrimidin-5-ylmethyl]-2-oxo-2H-pyrimidin-1-yl}-acetic acid]
IC50: 533 nM
